# Experiments:
# Assay in all cases: relative viability (nuclei count vs DMSO), 5 days (fraction); higher = more cells survive
# Mirin + Bortezomib = compound: N=C1NC(=O)/C(=C/c2ccc(O)cc2)S1 [Mirin] + CC(C)C[C@H](NC(=O)[C@H](Cc1ccccc1)NC(=O)c1cnccn1)B(O)O [Bortezomib] (partner 0.002 µM)
# Method in brief: (§1)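 Lung cancer cell lines were seeded in 1536-well plates and dosed by pin tool the next day, with either a single drug or a fixed anchor-drug dose combined with five library-drug doses (not always all listed) spaced in √10 steps. Five days later, one step fixed the cells and stained their nuclei (final 0.05% Triton X-100, 1% formaldehyde, 1 ug/ml Hoechst), and nuclei were counted on 4× images. Relative viability is the nuclei count in treated wells divided by the count in vehicle wells, and each value is the median of duplicate plates.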
# Mirin + Lapatinib = compound: N=C1NC(=O)/C(=C/c2ccc(O)cc2)S1 [Mirin] + CS(=O)(=O)CCNCc1ccc(-c2ccc3ncnc(Nc4ccc(OCc5cccc(F)c5)c(Cl)c4)c3c2)o1 [Lapatinib] (partner 2 µM)
# Method in brief: as §1
# [1] = compound: CCn1c(-c2nonc2N)nc2cnc(Oc3cccc(NC(=O)c4ccc(OCCN5CCOCC5)cc4)c3)cc21 + Nc1nc2[nH]cc(CCc3ccc(C(=O)N[C@@H](CCC(=O)O)C(=O)O)cc3)c2c(=O)[nH]1 [Pemetrexed] (partner 0.2 µM)
# Method in brief: as §1
# Mirin + Tozasertib = compound: N=C1NC(=O)/C(=C/c2ccc(O)cc2)S1 [Mirin] + Cc1cc(Nc2cc(N3CCN(C)CC3)nc(Sc3ccc(NC(=O)C4CC4)cc3)n2)n[nH]1 [Tozasertib] (partner 0.1 µM)
# Method in brief: as §1
Cell Line,relative viability (Mirin + Bortezomib; first compound 0.25 µM),relative viability (Mirin + Bortezomib; first compound 0.7906 µM),relative viability (Mirin + Bortezomib; first compound 2.5 µM),relative viability (Mirin + Bortezomib; first compound 7.906 µM),relative viability (Mirin + Bortezomib; first compound 25 µM),relative viability (Mirin + Lapatinib; first compound 0.25 µM),relative viability (Mirin + Lapatinib; first compound 0.7906 µM),relative viability (Mirin + Lapatinib; first compound 2.5 µM),relative viability (Mirin + Lapatinib; first compound 7.906 µM),relative viability (Mirin + Lapatinib; first compound 25 µM),relative viability ([1]; first compound 0.04 µM),relative viability ([1]; first compound 0.1265 µM),relative viability ([1]; first compound 0.4 µM),relative viability ([1]; first compound 1.265 µM),relative viability ([1]; first compound 4 µM),relative viability (Mirin + Tozasertib; first compound 0.25 µM),relative viability (Mirin + Tozasertib; first compound 0.7906 µM),relative viability (Mirin + Tozasertib; first compound 2.5 µM),relative viability (Mirin + Tozasertib; first compound 7.906 µM),relative viability (Mirin + Tozasertib; first compound 25 µM)
IA-LM,0.687,0.961,0.757,0.632,0.845,0.676,0.851,1.09,0.431,0.608,–,–,–,–,–,–,–,–,–,–
NCI-H441,0.387,0.645,0.449,0.314,0.409,–,–,–,–,–,0.261,0.26,0.251,0.243,0.252,0.719,0.762,0.634,0.551,0.26
NCI-H1792,0.982,0.997,0.902,0.883,0.984,0.891,0.814,0.97,0.829,0.942,0.972,0.724,0.228,0.274,0.449,–,–,–,–,–
LXF-289,0.99,1.08,1.01,1.02,1.11,0.906,1.01,0.91,1.04,1.04,0.972,0.974,0.918,0.856,0.795,0.214,0.241,0.156,0.128,0.151
HCC-827,1.07,1.08,1.01,1.07,1.15,0.167,0.182,0.17,0.2,0.227,0.27,0.261,0.266,0.267,0.285,0.412,0.39,0.421,0.384,0.426
EMC-BAC-2,1.11,1.08,1.07,1.05,1.11,0.955,0.902,0.954,0.918,0.88,0.419,0.377,0.298,0.298,0.311,0.274,0.28,0.284,0.228,0.162
NCI-H596,1.12,–,0.982,1,0.905,1.1,1.07,1.04,1.1,0.983,0.438,0.484,0.462,0.451,0.48,1.05,0.953,0.972,1.13,0.866
SW 900,–,–,–,–,–,–,–,–,–,–,0.526,0.49,0.439,0.442,0.444,0.652,0.698,0.571,0.689,0.473
SK-MES-1,–,–,–,–,–,0.461,0.469,0.544,0.53,0.624,1.08,0.941,0.829,0.66,0.46,0.95,1.14,0.87,0.936,0.665
NCI-H1299,1.02,1.12,1.01,1.05,1.17,0.984,0.973,0.977,1.01,1.12,–,–,–,–,–,–,–,–,–,–
NCI-H1563,1.07,1.11,0.943,0.8,0.812,1.05,1.09,1.09,0.867,0.853,0.82,0.769,0.694,0.595,0.734,–,–,–,–,–
NCI-H727,1.24,1.18,0.832,0.997,0.907,0.995,0.714,0.96,0.672,0.851,–,–,–,–,–,0.705,0.629,0.661,0.543,0.553
NCI-H1944,–,–,–,–,–,0.904,–,0.774,0.747,0.486,0.654,0.632,0.577,0.367,0.301,0.245,0.231,0.253,0.192,0.174
LK-2,–,–,–,–,–,0.787,–,0.879,0.593,0.496,0.308,0.354,0.151,0.139,0.265,0.188,–,0.149,0.166,0.16
Calu-6,0.925,1.08,1.04,0.895,0.841,1.11,1.12,1.06,1.01,0.983,–,–,–,–,–,–,–,–,–,–
NCI-H1395,–,–,–,–,–,0.947,–,1.08,0.934,0.853,0.961,0.825,0.736,0.519,0.434,0.703,0.857,0.66,0.772,0.72
NCI-H1703,0.449,0.483,0.347,–,0.227,1.11,1.23,1.29,0.768,0.826,–,–,–,–,–,–,–,–,–,–
EBC-1,0.596,0.629,0.55,0.535,0.316,0.203,0.208,0.219,0.201,0.221,–,–,–,–,–,–,–,–,–,–
NCI-H2342,–,–,–,–,–,–,–,–,–,–,0.75,0.782,0.736,0.474,0.76,0.474,0.636,0.625,0.49,0.459
ChaGo-K-1,0.984,–,0.953,0.628,0.969,–,–,–,–,–,0.263,0.25,0.238,0.235,0.239,0.234,0.222,0.241,0.215,0.171
NCI-H1648,–,–,–,–,–,–,–,–,–,–,1.01,1.13,0.828,0.964,0.78,0.444,0.608,0.506,0.466,0.251
NCI-H522,–,–,–,–,–,–,–,–,–,–,1.06,0.763,0.917,0.703,0.595,0.491,0.538,0.582,0.517,0.472
A549,–,–,–,–,–,0.914,1.15,1.04,1.08,0.598,–,–,–,–,–,–,–,–,–,–
LCLC-103H,1.12,1.07,0.959,1.23,1.12,–,–,–,–,–,0.394,0.444,0.36,0.345,0.419,0.417,0.554,0.481,0.461,0.336
